Results published in patent publication US20060069132A1, “Azolecarboxamide herbicides” (priority 2004, published 2006).

How the values were obtained:
barnyardgrass [1] = test: Test C flooded paddy test; format: in vivo, Echinochloa crus-galli
How it was run: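 Postemergence sprays were applied to plants 2 to 18 cm tall (1- to 4-leaf stage); in the flooded paddy test, barnyardgrass was grown to the 2-leaf stage. After 12 to 14 days in a greenhouse, injury was visually rated against untreated controls on a 0–100 scale (100 = complete control).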

wild oat = test: Test B postemergence herbicide test; format: in vivo, Avena fatua; details: postemergence, visual rating, scale 0 (no effect) to 100 (complete control)
How it was run: (§1)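 Read-out: visual comparison with controls, scored 0 to 100, where 100 means complete control and 0 no effect. Formulated chemicals were applied postemergence to plants 2–18 cm tall (1- to 4-leaf), or to flooded-paddy plants at the 2-leaf stage, then held 13 to 15 days under glass.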

lambsquarters = test: Test B pre-/postemergence herbicide test; format: in vivo, Chenopodium album; details: for Plant response rating, Lambsquarters: preemergence; for Lambsquarters plant response rating: postemergence, visual rating, scale 0 (no effect) to 100 (complete control)
How it was run: (§2)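 Plants compared with untreated controls 13–15 days post-treatment and given a visual 0–100 injury score. Applications: preemergence to seeds; postemergence at 1- to 4-leaf (2–18 cm); paddy species flooded, 2-leaf stage. Vehicle non-phytotoxic, surfactant included.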

large crabgrass = test: Test B pre-/postemergence herbicide test; format: in vivo, Digitaria sanguinalis; details: for Plant response rating, Crabgrass, Large: preemergence; for Crabgrass, Large plant response rating: postemergence, visual rating, scale 0 (no effect) to 100 (complete control)
How it was run: as §2

ducksalad [2] = test: Test B flooded paddy test; format: in vivo, Heteranthera limosa; details: 1000 g ai/ha, visual rating, scale 0 to 100 (0 no effect, 100 complete control), 13 to 15 days
How it was run: as §1

morningglory = test: Test B pre-/postemergence herbicide test; format: in vivo, Ipomoea coccinea; details: for Morningglory plant response rating: postemergence, visual rating, scale 0 (no effect) to 100 (complete control)
How it was run: (§3)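 Pre: seeds sown, then sprayed. Post: 1–4-leaf plants (2–18 cm) sprayed at the same time. Paddy: flooded, treated at 2-leaf stage. Formulation: non-phytotoxic solvent with surfactant. Greenhouse 13–15 days; visual 0–100 score relative to controls.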

giant foxtail = test: Test B pre-/postemergence herbicide test; format: in vivo, Setaria faberi; details: for Plant response rating, Foxtail, Giant: preemergence; for Foxtail, Giant plant response rating: postemergence, visual rating, scale 0 (no effect) to 100 (complete control)
How it was run: as §2

rice [3] = test: Test C flooded paddy test; format: in vivo, Oryza sativa
How it was run: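 Injury scored visually against controls on a 0 (no effect) to 100 (complete control) scale, 12 to 14 days after treatment in greenhouse. Flooded paddy plants treated at 2-leaf stage; postemergence plants at 1- to 4-leaf stage, 2 to 18 cm tall.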

ducksalad [4] = test: Test C flooded paddy test; format: in vivo, Heteranthera limosa
barnyardgrass [5] = test: Test B flooded paddy test; format: in vivo, Echinochloa crus-galli; details: 1000 g ai/ha, visual rating, scale 0 to 100 (0 no effect, 100 complete control), 13 to 15 days
How it was run: as §1

Surinam grass = test: Test B pre-/postemergence herbicide test; format: in vivo, Urochloa decumbens; details: for Plant response rating, Surinam Grass: preemergence; for Surinam Grass plant response rating: postemergence, visual rating, scale 0 (no effect) to 100 (complete control)
How it was run: as §2

[6] = system: small flower umbrella sedge; test: Test B flooded paddy test; format: in vivo, Cyperus difformis; details: 1000 g ai/ha, visual rating, scale 0 to 100 (0 no effect, 100 complete control), 13 to 15 days
How it was run: as §1

[7] = system: smallflower umbrella sedge; test: Test C flooded paddy test; format: in vivo, Cyperus difformis
rice [8] = test: Test B flooded paddy test; format: in vivo, Oryza sativa; details: 1000 g ai/ha, visual rating, scale 0 to 100 (0 no effect, 100 complete control), 13 to 15 days
How it was run: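 Formulated test chemicals went onto postemergence plants measuring 2 to 18 cm, at one to four leaves. For the paddy assay, species had reached two leaves. Scoring took place 13–15 days later by eye, relative to untreated plants, using 0 for no effect up to 100 for full control.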

corn = test: Test B pre-/postemergence herbicide test; format: in vivo, Zea mays; details: for Plant response rating, Corn: preemergence; for Corn plant response rating: postemergence, visual rating, scale 0 (no effect) to 100 (complete control)
How it was run: as §2

barnyardgrass [9] = test: Test B pre-/postemergence herbicide test; format: in vivo, Echinochloa crus-galli; details: for Plant response rating, Barnyardgrass: preemergence; for Barnyardgrass plant response rating: postemergence, visual rating, scale 0 (no effect) to 100 (complete control)
How it was run: as §3

blackgrass = test: Test B postemergence herbicide test; format: in vivo, Alopecurus myosuroides; details: postemergence, visual rating, scale 0 (no effect) to 100 (complete control)
How it was run: as §1

rice [10] = test: Test B pre-/postemergence herbicide test; format: in vivo, Oryza sativa; details: preemergence
How it was run: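 Greenhouse pot assay with simultaneous preemergence (treated seed) and postemergence (2–18 cm seedlings) applications of surfactant-containing, non-phytotoxic solvent formulations. Response scored visually 13–15 days later on a 0–100 scale, 100 meaning complete control.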

pigweed = test: Test B pre-/postemergence herbicide test; format: in vivo, Amaranthus retroflexus; details: for Plant response rating, Pigweed: preemergence; for Pigweed plant response rating: postemergence, visual rating, scale 0 (no effect) to 100 (complete control)
How it was run: as §2

cocklebur = test: Test B pre-/postemergence herbicide test; format: in vivo, Xanthium strumarium; details: for Plant response rating, Cocklebur: preemergence; for Cocklebur plant response rating: postemergence, visual rating, scale 0 (no effect) to 100 (complete control)
How it was run: as §3

wheat = test: Test B postemergence herbicide test; format: in vivo, Triticum aestivum; set-up: key to Wheat plant response rating: 0 = no effect, 100 = complete control; details: postemergence, 500 g ai/ha; visual rating, scale 0 (no effect) to 100 (complete control)
How it was run: as §1

velvetleaf = test: Test B pre-/postemergence herbicide test; format: in vivo, Abutilon theophrasti; details: for Plant response rating, Velvetleaf: preemergence; for Velvetleaf plant response rating: postemergence, visual rating, scale 0 (no effect) to 100 (complete control)
How it was run: as §2

[11] = 62 g ai/ha, scale 0 to 100 (0 no effect, 100 complete control)
[12] = 250 g ai/ha, scale of 0 to 100, 0 is no effect, 100 is complete control
[13] = 500 g ai/ha, visual rating after 12 to 14 days, scale 0 to 100 (0 no effect, 100 complete control)
[14] = 500 g ai/ha, visual rating 0-100, 0 no effect, 100 complete control
[15] = 125 g ai/ha, 0 to 100 scale, 0 is no effect, 100 is complete control
[16] = 125 g ai/ha, scale 0 to 100 (0 no effect, 100 complete control)

CCn1nc(C(C)(C)C)cc1C(=O)Nc1cc(C(=O)N2CC=CC2)ccn1 [Compound 142]
70: Rice plant response rating (rice [3]; [11]) | Rice plant response rating (rice [3]; [16]) | Rice plant response rating (rice [3]; [12]) | Plant response rating, Rice (rice [3]; [13]) | Rice plant response rating (rice [8]) | Plant response rating, Barnyardgrass (barnyardgrass [9]; [15])
75: Ducksalad plant response rating (ducksalad [4]; [11]) | Sedge, Umbrella plant response rating [7, 11]
50: Barnyardgrass plant response rating (barnyardgrass [1]; [11]) | Morningglory plant response rating (morningglory; 500 g ai/ha) | Pigweed plant response rating (pigweed; 125 g ai/ha)
90: Plant response rating, Barnyardgrass (barnyardgrass [1]; [13]) | Ducksalad plant response rating (ducksalad [2]) | Ducksalad plant response rating (ducksalad [4]; [16]) | Barnyardgrass plant response rating (barnyardgrass [5]) | Plant response rating, Sedge, Umbrella [7, 13]
65: Barnyardgrass plant response rating (barnyardgrass [1]; 125 g ai/ha, scale of 0 to 100, 0 is no effect, 100 is complete control)
10: Crabgrass, Large plant response rating (large crabgrass; 500 g ai/ha) | Surinam Grass plant response rating (Surinam grass; 125 g ai/ha) | Plant response rating, Surinam Grass (Surinam grass; [15]) | Barnyardgrass plant response rating (barnyardgrass [9]; 500 g ai/ha) | Wheat plant response rating (wheat) | Velvetleaf plant response rating (velvetleaf; 125 g ai/ha)
0: Crabgrass, Large plant response rating (large crabgrass; 125 g ai/ha) | Morningglory plant response rating (morningglory; 125 g ai/ha) | Plant response rating, Corn (corn; [14]) | Corn plant response rating (corn; 125 g ai/ha) | Corn plant response rating (corn; 500 g ai/ha) | Plant response rating, Corn (corn; [15]) | Barnyardgrass plant response rating (barnyardgrass [9]; 125 g ai/ha)
60: Lambsquarters plant response rating (lambsquarters; 125 g ai/ha) | Plant response rating, Foxtail, Giant (giant foxtail; [15]) | Plant response rating, Surinam Grass (Surinam grass; [14]) | Pigweed plant response rating (pigweed; 500 g ai/ha) | Velvetleaf plant response rating (velvetleaf; 500 g ai/ha)
30: Plant response rating, Morningglory (morningglory; 500 g ai/ha, visual rating 0-100, 0 no effect, 100 complete control, preemergence) | Foxtail, Giant plant response rating (giant foxtail; 125 g ai/ha) | Foxtail, Giant plant response rating (giant foxtail; 500 g ai/ha) | Plant response rating, Rice (rice [10]; [15]) | Plant response rating, Cocklebur (cocklebur; [15])
40: Blackgrass plant response rating (blackgrass; 125 g ai/ha) | Blackgrass plant response rating (blackgrass; 500 g ai/ha) | Plant response rating, Cocklebur (cocklebur; [14]) | Cocklebur plant response rating (cocklebur; 125 g ai/ha) | Cocklebur plant response rating (cocklebur; 500 g ai/ha)
80: Barnyardgrass plant response rating (barnyardgrass [1]; [12]) | Lambsquarters plant response rating (lambsquarters; 500 g ai/ha) | Plant response rating, Crabgrass, Large (large crabgrass; [15]) | Sedge, Umbrella plant response rating [6] | Sedge, Umbrella plant response rating [7, 16] | Sedge, Umbrella plant response rating [7, 12] | Plant response rating, Rice (rice [10]; [14]) | Plant response rating, Velvetleaf (velvetleaf; [15])
100: Plant response rating, Lambsquarters (lambsquarters; [14]) | Plant response rating, Lambsquarters (lambsquarters; [15]) | Plant response rating, Crabgrass, Large (large crabgrass; [14]) | Plant response rating, Foxtail, Giant (giant foxtail; [14]) | Plant response rating, Ducksalad (ducksalad [4]; [13]) | Plant response rating, Barnyardgrass (barnyardgrass [9]; [14]) | Plant response rating, Pigweed (pigweed; [14]) | Plant response rating, Pigweed (pigweed; [15]) | Plant response rating, Velvetleaf (velvetleaf; [14])
20: Oat, Wild plant response rating (wild oat; 125 g ai/ha) | Oat, Wild plant response rating (wild oat; 500 g ai/ha) | Surinam Grass plant response rating (Surinam grass; 500 g ai/ha)
95: Ducksalad plant response rating (ducksalad [4]; [12])
